The test system of the experiment is T1, P. javanicus ChE (cholinesterase from the liver of Puntius javanicus).
T1 construct: gene BCHE
Briefly: Ellman assay (DTNB), […] nm, Michaelis-Menten fit. The experiment is classed as biochemical, Barbonymus gonionotus. Particulars: 0.1 M sodium phosphate pH 7.0, ambient temperature, 0.1-2.5 mM substrate, 95% confidence interval in brackets. (In general: In Ellman's method for cholinesterases, released thiocholine reacts with DTNB.)

Like-named read-outs stand apart in the source and are kept apart here.

`CC(=O)SCC[N+](C)(C)C` [ATC, acetylthiocholine iodide]: the Km (read-out: ATC) is 410 µM. With `CCCC(=O)SCC[N+](C)(C)C` [BTC, S-Butyrylthiocholine iodide], the Km (read-out: BTC) stood at 230 µM.

Consider `CCC(=O)SCC[N+](C)(C)C` [PTC, propionylthiocholine iodide], for which the Km (read-out: PTC) was determined as 830 µM.

The values above are taken from article PMC4225846, “The Assessment of Cholinesterase from the Liver of Puntius Javanicus as Detection of Metal Ions” (The Scientific World Journal, 2014).
